Measurements published in patent publication US20150166505A1, “PYRIDINYL-SUBSTITUTED PYRAZOLYL CARBOXAMIDES” (GRÜNENTHAL GMBH, priority 2013, published 2015).
Where two headings read alike, the source gives them in different places.

What was measured:
[1] = molecular target: T1, CRAC channel (endogenous SOC in HEK293 cells) (Homo sapiens, UniProt Q96D31); experiment: HEK Calcium Influx Assay (FLIPR); format: cell-based
T1 construct: endogenous in cells; host or cells: HEK293 (ECACC)
Protocol: The effect of compounds of the invention on intracellular [Ca^2+] was tested in the HEK293 cell line (ECACC). HEK293 cells were cultured in DMEM/F12/Glutamax (Gibco) containing 10% FCS (Gibco), and maintained at 37° C., 5% CO2. Cell were split twice a week [3*10^6 (Mon-Thu) and 1*10^6 (Thu-Mon) cells/50 ml medium in T-175 ZK culture flasks, respectively]. Twenty four hours pre-experiment, cells were seeded on 96 well plates (Poly-D-Lysine 96well Black/Clear Plate, BD Biocoat REF 356640) at a density of 40,000 cells/well in DMEM/F12 (Gibco) containing 10% FCS (Gibco), and maintained at 37° C., 5% CO2. Prior to store-depletion, cell culture medium was removed and cells were loaded with the a Calcium-sensitive fluorescent dye comprised within the Calcium-4-assay kit (Molecular Devices) in nominally Ca^2+-free HBS buffer (140 mM NaCl, 4 mM KCl, 0.2 mM MgCl2, 11 mM D-glucose, and 10 mM HEPES, pH 7.4) according to manufacturer's instruction for 60 min at 37° C., 5% CO2. Passive depletion of intracellular Ca^2+-stores was then triggered by employing the SERCA inhibitor thapsigargin (2 μM final) for 10 min in the dark (RT). To prevent immediate Ca^2+-entry via the activated Store-operated channels (SOCs), cells were maintained in Ca^2+-free HBS buffer comprising 100 μM EGTA during store-depletion. Intracellular changes in [Ca^2+] were subsequently monitored with the FLIPR device (Molecular Devices). In brief, baseline imaging post-store depletion was allowed for 1 min before adjusting the extracellular buffer to 3 mM CaCl2. Increases in intracellular [Ca^2+] due to pre-activated SOC channels were monitored for 15 min until intracellular Ca^2+ levels had declined into a steady-state. Finally, compounds were administered and Ca^2+ signals were recorded for additional 10 min. Inhibition of endogenous SOC in HEK293 cells was quantified employing the average Ca^2+ signal measured from 9.5-10 min post-administration. Zero percent inhibition (MAX) was defined as the Ca^2+ signal recorded from wells to which DMSO-only had been added instead of compound. Hundred percent inhibition (MIN) was defined as the signal obtained from wells in which cells haven't been treated with TG prior to Ca^2+ addition and to which DMSO-only had been added instead of compound. For routine IC50 determinations of compounds, 8 concentrations of a serial dilution (1:3.16) were tested, starting off from 10 μM. Reliable IC50's could consequently be determined only, if they were at least sub 2.5-3 μM.

[2] = system: Interleukin-2 (IL-2) production/release in Jurkat T cell line; experiment: Jurkat IL-2 Production Assay; format: cell-based; details: Homo sapiens; Jurkat T cells, PHA stimulation 22 hours
Protocol: Jurkat IL-2 Production Assay
The effect of compounds of the invention on Interleukin-2 (IL-2) production/release was tested in the Jurkat T cell line (ECACC) clone E6-1. Jurkat T cells were cultured in DMEM/F12/Glutamax (Gibco) containing 10% FCS (Gibco), and maintained at 37° C., 5% CO2. Cell were split twice a week [5*10^6 (Mon-Thu) and 1*10^7 (Thu-Mon) cells/50 ml medium in T-175 ZK culture flasks, respectively]. Prior to experiment, cells were seeded on 96 well plates (Cellstar 96 Well; Cat No. 655180, Greiner bio-one) at a density of 5*10^5 cells/well in DMEM/F12/Glutamax (Gibco) containing 10% FCS (Gibco), and incubated for 60 min at 37° C., 5% CO2. Subsequently, compounds were added and cells were allowed to incubate for 30 min at 37° C., 5% CO2. Cells were then stimulated with 15 μg/ml Phytohemagglutinin (PHA; Sigma) for 22 hours at 37° C., 5% CO2. Before sampling of the supernatants, cells were spun down (200*g/5 min/RT). The amount of IL-2 released into the supernatant was quantified with the human IL-2 AlphaLisa kit (Perkin Elmer) according to manufacturer's instructions. Luminescence proximity measurements were carried out in the Synergy H4 reader (BioTek) employing the fluorescence setting of the reader (ex: 680/30 nm; em: 620/40 nm). Inhibition of IL-production/release in/from Jurkat T cells was quantified as follows: Zero percent inhibition (MAX) was defined as the [IL-2] determined in supernatants derived from cells to which PHA & DMSO-only had been added instead of compound. Hundred percent inhibition (MIN) was defined as the [IL-2] determined in supernatants derived from cells that had been pre-treated with 1 μM CyclosporineA (Sigma) before the addition of 15 μg/ml PHA. For routine IC50 determinations of compounds, 8 concentrations of a serial dilution (1:3.16) were tested, starting off from 10 μM.

[3] = numeric values of Table 2, read-out: inhib. [@ 10 μM] FLIPR
[4] = thapsigargin store depletion, read-out: % inhib. [@ 10 μM] FLIPR

T1 sequence (Q96D31 whole entry): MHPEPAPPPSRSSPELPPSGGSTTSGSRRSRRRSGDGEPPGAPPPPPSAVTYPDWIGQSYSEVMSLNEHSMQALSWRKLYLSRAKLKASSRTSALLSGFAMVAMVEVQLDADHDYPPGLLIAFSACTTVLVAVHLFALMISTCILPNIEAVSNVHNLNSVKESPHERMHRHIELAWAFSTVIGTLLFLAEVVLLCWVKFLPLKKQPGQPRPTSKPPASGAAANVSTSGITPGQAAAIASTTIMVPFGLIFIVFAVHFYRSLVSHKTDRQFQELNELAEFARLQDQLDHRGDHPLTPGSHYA

SMILES | inhibition at 10 µM [1, 3] | inhibition at 10 µM [1, 4] | IC50 [2]
Cc1cc(OC(C)C)ncc1-c1cc(C(=O)Nc2c(F)cccc2F)nn1C [Example 13, N-(2,6-Difluoro-phenyl)-5-(6-isopropoxy-4-methyl-pyridin-3-yl)-1-methyl-1H-pyrazole-3-carboxylic acid amide] | 100% | > 70% | 0.5 to 1 µM
CCOc1cc(OC)c(-c2cc(C(=O)Nc3c(F)cncc3F)nn2C)cn1 [Example 14, N-(3,5-Difluoro-pyridin-4-yl)-5-(6-ethoxy-4-methoxy-pyridin-3-yl)-1-methyl-1H-pyrazole-3-carboxylic acid amide] | – | > 70% | < 0.5 µM
CCOc1cc(OCC)c(-c2cc(C(=O)Nc3c(F)cncc3F)nn2C)cn1 [Example 15, 5-(4,6-Diethoxy-pyridin-3-yl)-N-(3,5-difluoro-pyridin-4-yl)-1-methyl-1H-pyrazole-3-carboxylic acid amide] | – | > 70% | < 0.5 µM
CCOc1cc(OC)c(-c2cc(C(=O)Nc3c(F)cccc3F)nn2C)cn1 [Example 16, N-(2,6-Difluoro-phenyl)-5-(6-ethoxy-4-methoxy-pyridin-3-yl)-1-methyl-1H-pyrazole-3-carboxylic acid amide] | – | > 70% | < 0.5 µM
CCOc1cc(OCC)c(-c2cc(C(=O)Nc3c(F)cccc3F)nn2C)cn1 [Example 17, 5-(4,6-Diethoxy-pyridin-3-yl)-N-(2,6-difluoro-phenyl)-1-methyl-1H-pyrazole-3-carboxylic acid amide] | – | > 70% | < 0.5 µM
Cc1cc(OCC2CCC2)ncc1-c1cc(C(=O)Nc2c(F)cncc2F)nn1C [Example 20, 5-[6-(Cyclobutyl-methoxy)-4-methyl-pyridin-3-yl]-N-(3,5-difluoro-pyridin-4-yl)-1-methyl-1H-pyrazole-3-carboxylic acid amide] | 121% | > 70% | < 0.5 µM
Cc1cc(OC2COC2)ncc1-c1cc(C(=O)Nc2c(F)cccc2F)nn1C [Example 23, N-(2,6-Difluoro-phenyl)-1-methyl-5-[4-methyl-6-(oxetan-3-yloxy)-pyridin-3-yl]-1H-pyrazole-3-carboxylic acid amide] | 94% | > 70% | 1 to 5 µM
COCCOc1cc(C)c(-c2cc(C(=O)Nc3c(F)cccc3F)nn2C)cn1 [Example 28, N-(2,6-Difluoro-phenyl)-5-[6-(2-methoxy-ethoxy)-4-methyl-pyridin-3-yl]-1-methyl-1H-pyrazole-3-carboxylic acid amide] | 87% | > 70% | 1 to 5 µM
CCOc1cc(C(F)(F)F)c(-c2cc(C(=O)Nc3c(F)cncc3F)nn2C)cn1 [Example 31, N-(3,5-Difluoro-pyridin-4-yl)-5-[6-ethoxy-4-(trifluoromethyl)-pyridin-3-yl]-1-methyl-1H-pyrazole-3-carboxylic acid amide] | – | > 70% | 1 to 5 µM
CCOc1cc(C(F)(F)F)c(-c2cc(C(=O)Nc3c(F)cccc3F)nn2C)cn1 [Example 32, N-(2,6-Difluoro-phenyl)-5-[6-ethoxy-4-(trifluoromethyl)-pyridin-3-yl]-1-methyl-1H-pyrazole-3-carboxylic acid amide] | – | > 70% | 0.5 to 1 µM
Cc1c(-c2cc(C(=O)Nc3c(F)cccc3F)nn2C)cnc(C2CC2)c1F [Example 33, 5-(6-Cyclopropyl-5-fluoro-4-methyl-pyridin-3-yl)-N-(2,6-difluoro-phenyl)-1-methyl-1H-pyrazole-3-carboxylic acid amide] | – | > 70% | 1 to 5 µM
Cc1c(-c2cc(C(=O)Nc3c(F)cncc3F)nn2C)cnc(C2CC2)c1F [Example 34, 5-(6-Cyclopropyl-5-fluoro-4-methyl-pyridin-3-yl)-N-(3,5-difluoro-pyridin-4-yl)-1-methyl-1H-pyrazole-3-carboxylic acid amide] | – | > 70% | 1 to 5 µM
CCOc1ncc(-c2cc(C(=O)Nc3c(F)cccc3F)nn2C)c(C)c1F [Example 35, N-(2,6-Difluoro-phenyl)-5-(6-ethoxy-5-fluoro-4-methyl-pyridin-3-yl)-1-methyl-1H-pyrazole-3-carboxylic acid amide] | – | < 50% | 1 to 5 µM
CCOc1ncc(-c2cc(C(=O)Nc3c(F)cncc3F)nn2C)c(C)c1F [Example 36, N-(3,5-Difluoro-pyridin-4-yl)-5-(6-ethoxy-5-fluoro-4-methyl-pyridin-3-yl)-1-methyl-1H-pyrazole-3-carboxylic acid amide] | – | 50 to 70% | 1 to 5 µM
Cc1cc(N(C)C)ncc1-c1cc(C(=O)Nc2c(F)cccc2F)nn1C [Example 37, N-(2,6-Difluoro-phenyl)-5-(6-dimethylamino-4-methyl-pyridin-3-yl)-1-methyl-1H-pyrazole-3-carboxylic acid amide] | 98% | > 70% | 1 to 5 µM
COc1cc(OC(F)F)ncc1-c1cc(C(=O)Nc2c(F)cccc2F)nn1C [Example 43, 5-[6-(Difluoro-methoxy)-4-methoxy-pyridin-3-yl]-N-(2,6-difluoro-phenyl)-1-methyl-1H-pyrazole-3-carboxylic acid amide] | – | > 70% | < 0.5 µM
COc1cc(OC(F)F)ncc1-c1cc(C(=O)Nc2c(F)cncc2F)nn1C [Example 44, 5-[6-(Difluoro-methoxy)-4-methoxy-pyridin-3-yl]-N-(3,5-difluoro-pyridin-4-yl)-1-methyl-1H-pyrazole-3-carboxylic acid amide] | – | > 70% | < 0.5 µM
COc1cc(OCC2CC2)ncc1-c1cc(C(=O)Nc2c(F)cccc2F)nn1C [Example 45, 5-[6-(Cyclopropyl-methoxy)-4-methoxy-pyridin-3-yl]-N-(2,6-difluoro-phenyl)-1-methyl-1H-pyrazole-3-carboxylic acid amide] | – | > 70% | < 0.5 µM
COc1cc(OCC(F)(F)F)ncc1-c1cc(C(=O)Nc2c(F)cccc2F)nn1C [Example 46, N-(2,6-Difluoro-phenyl)-5-[4-methoxy-6-(2,2,2-trifluoro-ethoxy)-pyridin-3-yl]-1-methyl-1H-pyrazole-3-carboxylic acid amide] | – | > 70% | < 0.5 µM
CCOc1cc(OC(F)F)c(-c2cc(C(=O)Nc3c(F)cccc3F)nn2C)cn1 [Example 47, 5-[4-(Difluoro-methoxy)-6-ethoxy-pyridin-3-yl]-N-(2,6-difluoro-phenyl)-1-methyl-1H-pyrazole-3-carboxylic acid amide] | – | > 70% | < 0.5 µM
